Measured values: US9290459B1, “Substituted bicyclic dihydropyrimidinones and their use as inhibitors of neutrophil elastase activity” (Boehringer Ingelheim International GmbH, priority 2013, dated 2016)
In brackets after ≈: the same amount, converted by molar mass.

tested on: not listed separately; assay: Metabolic stability with human liver microsomes; assay type: in vitro ADME; details: human, microsomes, pH 7.6

half-life at 1 μM [h] | Structure (SMILES)
> 2.17 | CNC(=O)N1C(=O)N(c2cccc(C(F)(F)F)c2)C2=C(C(=O)CC2)C1c1ccc(C#N)cc1OC (centres unmarked) [Example 50.3]

same assay, conditions: pooled human liver microsomes, 1 mg/ml protein, 1 μM test compound, 37° C., NADPH

Structure (SMILES) | t1/2 INVITRO [h]
CS(=O)(=O)c1cc(C#N)ccc1C1C2=C(CCC2=O)N(c2cccc(C(F)(F)F)c2)C(=O)N1CC(=O)N1CC2CC2C1 (centres unmarked) [Example 22.4] | >2.17
N#Cc1ccc([C@@H]2C3=C(CCC3=O)N(c3cccc(C(F)(F)F)c3)C(=O)N2C(=O)NC2CCS(=O)(=O)CC2)cc1 [Example 46, (R)-4-(4-Cyanophenyl)-2,5-dioxo-N-(1,1-dioxo-hexahydro-1λ^6-thiopyran-4-yl)-1-(3-(trifluoromethyl)phenyl)-4,5,6,7-tetrahydro-1H-cyclopenta[d]pyrimidine-3(2H)-carboxamide] | >2.17

Second part, the compound after the results:

t1/2 INVITRO [h] | Structure (SMILES)
>2.17 | C[S+]([O-])CCNC(=O)N1C(=O)N(c2cccc(C(F)(F)F)c2)C2=C(C(=O)CC2)C1c1ccc(C#N)cc1 (centres unmarked) [Example 7.6]
1.67 | CS(=O)(=O)c1cc(C#N)ccc1C1C2=C(CCC2=O)N(c2cccc(C(F)(F)F)c2)C(=O)N1CCCO (centres unmarked) [Example 24.1]

tested on: not listed separately; assay: Drug transport across human Caco-2 cells; assay type: in vitro ADME; details: human, Caco-2, pH 7.2, Caco-2 monolayers, apical-to-basal, pH 7.2, 37° C.; read-out: PEAB

Papp A→B at 10 µM [×10⁻⁶ cm/s] | Structure (SMILES)
87 | CN1C(=O)N(c2cccc(C(F)(F)F)c2)C2=C(C(=O)CC2)[C@H]1c1ccc(C#N)cc1 [Example 2A, (R)-4-(3-Methyl-2,5-dioxo-1-(3-(trifluoromethyl)phenyl)-2,3,4,5,6,7-hexahydro-1H-cyclopenta[d]pyrimidin-4-yl)benzonitrile]
72.4 | CNC(=O)N1C(=O)N(c2cccc(C(F)(F)F)c2)C2=C(C(=O)CC2)C1c1ccc(C#N)cc1OC (centres unmarked) [Example 50.3]

same assay, conditions: human, Caco-2, pH 7.2, Caco-2 monolayers, basal-to-apical, pH 7.2, 37° C.; read-out: PEBA

Papp B→A at 10 µM [×10⁻⁶ cm/s] | Structure (SMILES)
69 | CN1C(=O)N(c2cccc(C(F)(F)F)c2)C2=C(C(=O)CC2)[C@H]1c1ccc(C#N)cc1 [Example 2A, (R)-4-(3-Methyl-2,5-dioxo-1-(3-(trifluoromethyl)phenyl)-2,3,4,5,6,7-hexahydro-1H-cyclopenta[d]pyrimidin-4-yl)benzonitrile]
68.1 | CNC(=O)N1C(=O)N(c2cccc(C(F)(F)F)c2)C2=C(C(=O)CC2)C1c1ccc(C#N)cc1OC (centres unmarked) [Example 50.3]

tested on: not listed separately; assay: Aqueous solubility; assay type: physicochemical; details: McIlvaine buffer pH 6.8, 2.5% DMSO, 24 h shaking
Method: Assay for Determination of Aqueous Solubility […] After 24 h of shaking, the solutions or suspensions are filtered and analyzed by LC-UV. The amount dissolved in buffer is compared to the amount dissolved in the acetonitrile/water (1/1) solution.

Structure (SMILES) | Aqueous solubility [µg/mL]
CN(C)CCNC(=O)N1C(=O)N(c2cccc(C(F)(F)F)c2)C2=C(C(=O)CC2)C1c1ccc(C#N)cc1 (centres unmarked) [Example 7.5] | 104
CN1CC(NC(=O)N2C(=O)N(c3cccc(C(F)(F)F)c3)C3=C(C(=O)CC3)C2c2ccc(C#N)cc2)CC1=O (centres unmarked) [Example 7.9] | 106
N#Cc1ccc([C@@H]2C3=C(CCC3=O)N(c3cccc(C(F)(F)F)c3)C(=O)N2C(=O)NC2CCS(=O)(=O)CC2)cc1 [Example 46, (R)-4-(4-Cyanophenyl)-2,5-dioxo-N-(1,1-dioxo-hexahydro-1λ^6-thiopyran-4-yl)-1-(3-(trifluoromethyl)phenyl)-4,5,6,7-tetrahydro-1H-cyclopenta[d]pyrimidine-3(2H)-carboxamide] | 10

Continued, values first:

Aqueous solubility [µg/mL] | Structure (SMILES)
94 | C[S+]([O-])CCNC(=O)N1C(=O)N(c2cccc(C(F)(F)F)c2)C2=C(C(=O)CC2)C1c1ccc(C#N)cc1 (centres unmarked) [Example 7.6]
64 | CS(=O)(=O)c1cc(C#N)ccc1C1C2=C(CCC2=O)N(c2cccc(C(F)(F)F)c2)C(=O)N1CCCO (centres unmarked) [Example 24.1]

same assay, conditions: McIlvaine buffer pH 6.8 with 2.5% DMSO, pH 6.8, aqueous buffer, kinetic from dmso stock, McIlvaine buffer pH 6.8, 2.5% DMSO, 24 h shaking

solubility at 24 h [µg/mL] | Structure (SMILES)
70 (≈ 170 µM) | CN1C(=O)N(c2cccc(C(F)(F)F)c2)C2=C(C(=O)CC2)[C@H]1c1ccc(C#N)cc1 [Example 2A, (R)-4-(3-Methyl-2,5-dioxo-1-(3-(trifluoromethyl)phenyl)-2,3,4,5,6,7-hexahydro-1H-cyclopenta[d]pyrimidin-4-yl)benzonitrile]

molecular target: Human neutrophil elastase (Homo sapiens (Human), UniProt P08246); assay: Human Neutrophil Elastase Assay; assay type: biochemical; details: human neutrophil elastase, substrate MeOSuc-Ala-Ala-Pro-Val-AMC 250 μM, pH 7.5; read-out: IC50
Sequence (P08246 30-247): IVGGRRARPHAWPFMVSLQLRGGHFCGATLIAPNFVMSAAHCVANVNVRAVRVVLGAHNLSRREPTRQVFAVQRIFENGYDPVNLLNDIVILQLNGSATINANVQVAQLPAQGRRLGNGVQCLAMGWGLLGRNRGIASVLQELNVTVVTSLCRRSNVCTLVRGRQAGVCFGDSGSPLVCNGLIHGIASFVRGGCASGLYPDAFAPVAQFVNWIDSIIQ

Structure (SMILES) | IC50 [nM]
N#Cc1ccc(C2C3=C(CCC3=O)N(c3cccc(C(F)(F)F)c3)C(=O)N2C(N)=O)cc1 (centres unmarked) [Example 40, 4-(4-Cyanophenyl)-2,5-dioxo-1-(3-(trifluoromethyl)phenyl)-4,5,6,7-tetrahydro-1H-cyclopenta[d]pyrimidine-3(2H)-carboxamide] | 2.2
CC(C)(O)CNC(=O)N1C(=O)N(c2cccc(C(F)(F)F)c2)C2=C(C(=O)CC2)[C@@H]1c1ccc(C#N)cc1 [Example 41B, (S)-4-(4-Cyanophenyl)-N-(2-hydroxy-2-methylpropyl)-2,5-dioxo-1-(3-(trifluoro-methyl)phenyl)-4,5,6,7-tetrahydro-1H-cyclopenta[d]pyrimidine-3(2H)-carboxamide] | 40.4
N#Cc1ccc(C2C3=C(CCC3=O)N(c3cccc(C(F)(F)F)c3)C(=O)N2C(=O)NC2CC[S+]([O-])CC2)cc1 (centres unmarked) [Example 43, 4-(4-Cyanophenyl)-2,5-dioxo-N-(1-oxo-hexahydro-1λ^4-thiopyran-4-yl)-1-(3-(trifluoro-methyl)phenyl)-4,5,6,7-tetrahydro-1H-cyclopenta[d]pyrimidine-3(2H)-carboxamide] | < 1
CS(=O)(=O)c1cc(C#N)ccc1[C@@H]1C2=C(CCC2=O)N(c2cccc(C(F)(F)F)c2)C(=O)N1C(=O)NC1CCOCC1 [Example 47.15] | < 1
CS(=O)(=O)c1cc(C#N)ccc1[C@@H]1C2=C(CCC2=O)N(c2cccc(C(F)(F)F)c2)C(=O)N1C(=O)NCC1CC(O)C1 (some centres unmarked) [Example 47.16] | < 1
CS(=O)(=O)c1cc(C#N)ccc1[C@@H]1C2=C(CCC2=O)N(c2cccc(C(F)(F)F)c2)C(=O)N1C(=O)NCC1(O)CCC1 [Example 47.17] | < 1
CS(=O)(=O)c1cc(C#N)ccc1[C@@H]1C2=C(CCC2=O)N(c2cccc(C(F)(F)F)c2)C(=O)N1C(=O)N[C@H]1CCCC[C@@H]1O [Example 47.21] | < 1
CS(=O)(=O)c1cc(C#N)ccc1[C@@H]1C2=C(CCC2=O)N(c2cccc(C(F)(F)F)c2)C(=O)N1C(=O)NC1C2CC1C2 (some centres unmarked) [Example 48.2] | < 1
CS(=O)(=O)c1cc(C#N)ccc1[C@@H]1C2=C(CCC2=O)N(c2cccc(C(F)(F)F)c2)C(=O)N1C(=O)N[C@H]1CC[C@H](O)C1 [Example 48.4] | < 1
CNC(=O)N1C(=O)N(c2cccc(C(F)(F)F)c2)C2=C(C(=O)CC2)[C@@H]1c1ccc(C#N)cc1F [Example 49B, (R)-4-(4-Cyano-2-fluorophenyl)-N-methyl-2,5-dioxo-1-(3-(trifluoromethyl)phenyl)-4,5,6,7-tetrahydro-1H-cyclopenta[d]pyrimidine-3(2H)-carboxamide] | 173
CNC(=O)N1C(=O)N(c2cccc(C(F)(F)F)c2)C2=C(C(=O)CC2)C1c1ccc(C#N)cc1C (centres unmarked) [Example 50.2] | < 1
CNC(=O)N1C(=O)N(c2cccc(C(F)(F)F)c2)C2=C(C(=O)CC2)C1c1ccc(C#N)cc1Cl (centres unmarked) [Example 50.4] | 1.2
CCS(=O)(=O)c1cc(C#N)ccc1C1C2=C(CCC2=O)N(c2cccc(C(F)(F)F)c2)C(=O)N1C(=O)NC (centres unmarked) [Example 50.7] | < 1
CCNC(=O)N1C(=O)N(c2cccc(C(F)(F)F)c2)C2=C(C(=O)CC2)C1c1ccc(C#N)cc1Cl (centres unmarked) [Example 51.2] | < 1
CCNC(=O)N1C(=O)N(c2cccc(C(F)(F)F)c2)C2=C(C(=O)CC2)C1c1ccc(C#N)cc1S(=O)(=O)CC (centres unmarked) [Example 51.3] | < 1
N#Cc1ccc(C2C3=C(CCC3=O)N(c3cccc(C(F)F)c3)C(=O)N2C(=O)NCCCO)cc1 (centres unmarked) [Example 52, 4-(4-Cyanophenyl)-1-(3-(difluoromethyl)phenyl)-N-(3-hydroxypropyl)-2,5-dioxo-4,5,6,7-tetrahydro-1H-cyclopenta[d]pyrimidine-3(2H)-carboxamide] | < 1
COCCNC(=O)N1C(=O)N(c2cccc(C(F)F)c2)C2=C(C(=O)CC2)C1c1ccc(C#N)cc1 (centres unmarked) [Example 52.4] | < 1
N#Cc1ccc([C@H]2C3=C(CCC3=O)N(c3cccc(C(F)F)c3)C(=O)N2C(=O)NCCCO)cc1 [Example 52B, (S)-4-(4-Cyanophenyl)-1-(3-(difluoromethyl)phenyl)-N-(3-hydroxypropyl)-2,5-dioxo-4,5,6,7-tetrahydro-1H-cyclopenta[d]pyrimidine-3(2H)-carboxamide] | 619
CCNC(=O)N1C(=O)N(c2cccc(C(F)F)c2)C2=C(C(=O)CC2)C1c1ccc(C#N)cc1S(C)(=O)=O (centres unmarked) [Example 53.2] | < 1
CC(C)(O)CNC(=O)N1C(=O)N(c2cccc(C(F)F)c2)C2=C(C(=O)CC2)C1c1ccc(C#N)cc1S(C)(=O)=O (centres unmarked) [Example 53.5] | < 1
CS(=O)(=O)N1C(=O)N(c2ccnc(C(F)(F)F)c2)C2=C(C(=O)CC2)C1c1ccc(C#N)cc1 (centres unmarked) [Example 57, 4-(3-(Methylsulfonyl)-2,5-dioxo-1-(2-(trifluoromethyl)pyridin-4-yl)-2,3,4,5,6,7-hexahydro-1H-cyclopenta[d]pyrimidin-4-yl)benzonitrile] | 34.9

Now from value to compound:

IC50 [nM] | Structure (SMILES)
1.4 | CC(C)(O)CNC(=O)N1C(=O)N(c2cccc(C(F)(F)F)c2)C2=C(C(=O)CC2)C1c1ccc(C#N)cc1 (centres unmarked) [Example 41, 4-(4-Cyanophenyl)-N-(2-hydroxy-2-methylpropyl)-2,5-dioxo-1-(3-(trifluoromethyl)-phenyl)-4,5,6,7-tetrahydro-1H-cyclopenta[d]pyrimidine-3(2H)-carboxamide]
< 1 | N#Cc1ccc(C2C3=C(CCC3=O)N(c3cccc(C(F)(F)F)c3)C(=O)N2C(=O)NC2CCS(=N)(=O)CC2)cc1 (centres unmarked) [Example 44, 4-(4-Cyanophenyl)-2,5-dioxo-N-(1-imino-1-oxo-hexahydro-1λ^6-thiopyran-4-yl)-1-(3-(trifluoromethyl)phenyl)-4,5,6,7-tetrahydro-1H-cyclopenta[d]pyrimidine-3(2H)-carboxamide]
< 1 | CS(=O)(=O)c1cc(C#N)ccc1[C@@H]1C2=C(CCC2=O)N(c2cccc(C(F)(F)F)c2)C(=O)N1C(=O)NCC#N [Example 47.3]
< 1 | CC(C)(CO)NC(=O)N1C(=O)N(c2cccc(C(F)(F)F)c2)C2=C(C(=O)CC2)[C@H]1c1ccc(C#N)cc1S(C)(=O)=O [Example 47.14]
1.8 | CNC(=O)N1C(=O)N(c2cccc(C(F)(F)F)c2)C2=C(C(=O)CC2)C1c1ccc(C#N)cc1F (centres unmarked) [Example 49, 4-(4-Cyano-2-fluorophenyl)-N-methyl-2,5-dioxo-1-(3-(trifluoromethyl)phenyl)-4,5,6,7-tetrahydro-1H-cyclopenta[d]pyrimidine-3(2H)-carboxamide]
1.2 | CCNC(=O)N1C(=O)N(c2cccc(C(F)(F)F)c2)C2=C(C(=O)CC2)C1c1ccc(C#N)cc1F (centres unmarked) [Example 49.1]
1.3 | COCCNC(=O)N1C(=O)N(c2cccc(C(F)(F)F)c2)C2=C(C(=O)CC2)C1c1ccc(C#N)cc1F (centres unmarked) [Example 49.2]
< 1 | CNC(=O)N1C(=O)N(c2cccc(C(F)(F)F)c2)C2=C(C(=O)CC2)C1c1ccc(C#N)cc1[S+](C)[O-] (centres unmarked) [Example 50.5]
1.2 | CNC(=O)N1C(=O)N(c2cccc(C(F)(F)F)c2)C2=C(C(=O)CC2)C1c1ccc(C#N)cc1Br (centres unmarked) [Example 50.6]
< 1 | CCNC(=O)N1C(=O)N(c2cccc(C(F)(F)F)c2)C2=C(C(=O)CC2)C1c1ccc(C#N)cc1[S+](C)[O-] (centres unmarked) [Example 51.4]
< 1 | CNC(=O)N1C(=O)N(c2cccc(C(F)F)c2)C2=C(C(=O)CC2)C1c1ccc(C#N)cc1S(C)(=O)=O (centres unmarked) [Example 53.1]
